# From the supplement of paper PMC10307832
# Key:
# Assay in all cases: relative viability (nuclei count vs DMSO), 5 days (fraction); higher = more cells survive
# [1] = compound: CN1C=C(C2=CC=CC=C21)/C=C\3/C4=C(C=CC=N4)NC3=O + COc1cc2c(Oc3ccc(NC(=O)C4(C(=O)Nc5ccc(F)cc5)CC4)cc3F)ccnc2cc1OCCCN1CCOCC1 [Foretinib] (partner 0.25 µM)
# Procedure, shortened: (§1)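 Nuclei were stained with Hoechst during a one-step fixation (final 0.05% Triton X-100, 1% formaldehyde, 1 ug/ml Hoechst) carried out 5 days after dosing, then counted on 4× images. The cells, lung cancer lines in 1536-well plates, had been dosed by pin tool the day after seeding with one drug alone or a fixed anchor-drug dose plus five library-drug doses (not always all listed) in √10 steps. Relative viability is the nuclei count in treated wells divided by that in vehicle wells, and each value is the median of duplicate plates.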
# [2] = compound: CN1C=C(C2=CC=CC=C21)/C=C\3/C4=C(C=CC=N4)NC3=O + O=C(CCCCCCC(=O)Nc1ccccc1)NO [Vorinostat] (partner 1 µM)
# Procedure, shortened: as §1
# [3] = compound: CN1C=C(C2=CC=CC=C21)/C=C\3/C4=C(C=CC=N4)NC3=O + N=C(N)NC(=N)NCCc1ccccc1 [Phenformin] (partner 250 µM)
# Procedure, shortened: as §1
# [4] = compound: CC(=O)Nc1cccc(-n2c(=O)n(C3CC3)c(=O)c3c(Nc4ccc(I)cc4F)n(C)c(=O)c(C)c32)c1 [Trametinib] + COc1cc2c(Oc3ccc(NC(=O)C4(C(=O)Nc5ccc(F)cc5)CC4)cc3F)ccnc2cc1OCCCN1CCOCC1 [Foretinib] (partner 0.25 µM)
# Procedure, shortened: as §1
Cell Line,relative viability ([1]; first compound 0.02 µM),relative viability ([1]; first compound 0.06325 µM),relative viability ([1]; first compound 0.6325 µM),relative viability ([1]; first compound 2 µM),relative viability ([2]; first compound 0.02 µM),relative viability ([2]; first compound 0.06325 µM),relative viability ([2]; first compound 0.6325 µM),relative viability ([2]; first compound 2 µM),relative viability ([3]; first compound 0.02 µM),relative viability ([3]; first compound 0.06325 µM),relative viability ([3]; first compound 0.6325 µM),relative viability ([3]; first compound 2 µM),relative viability ([4]; first compound 0.0025 µM),relative viability ([4]; first compound 0.007906 µM),relative viability ([4]; first compound 0.025 µM),relative viability ([4]; first compound 0.07906 µM),relative viability ([4]; first compound 0.25 µM),relative viability ([1]; first compound 0.2 µM),relative viability ([2]; first compound 0.2 µM),relative viability ([3]; first compound 0.2 µM)
NCI-H1944,0.89,0.874,0.826,0.77,0.471,0.5,0.568,0.528,0.21,0.181,0.181,0.167,0.811,0.634,0.572,0.461,0.341,,,
NCI-H23,0.982,0.977,1.03,1.07,0.579,0.518,0.612,0.474,0.829,0.77,0.718,0.797,0.874,0.675,0.549,0.513,0.343,1.03,0.537,0.693
NCI-H1648,,,,,0.557,0.391,0.327,0.64,,,,,,,,,,,0.425,
NCI-H522,,,,,0.734,0.893,0.899,0.953,0.579,0.672,0.58,0.644,,,,,,,0.84,0.703
HCC-366,0.934,1.01,0.916,0.896,0.239,0.32,0.226,0.174,0.578,0.641,0.664,0.667,0.875,0.765,0.768,0.49,0.228,0.886,0.28,0.602
EBC-1,0.0992,0.108,0.0962,0.0995,,,,,,,,,0.101,0.0972,0.0957,0.0946,0.0905,0.0997,,
ChaGo-K-1,0.921,0.911,0.861,0.918,0.71,0.772,0.759,0.769,0.419,0.492,0.522,0.471,0.805,0.908,0.839,0.839,0.687,0.828,0.627,0.41
LCLC-97TM1,0.891,0.793,1.03,0.921,,0.621,0.766,0.77,0.462,0.408,0.442,0.428,0.817,0.666,0.459,0.306,0.301,0.91,0.467,0.411
NCI-H1299,1.09,1.1,1.07,1.02,,,,,,,,,1.07,1.2,1.01,0.794,0.481,1.16,,
EMC-BAC-2,1.04,0.996,1.06,1.08,0.849,0.441,0.261,0.214,0.538,0.525,0.475,0.533,0.917,0.885,0.782,0.907,0.68,1.01,0.39,0.522
NCI-H1623,0.838,0.878,0.712,0.755,,,,,0.631,0.537,0.513,0.564,0.782,0.591,0.532,0.437,0.727,0.701,,0.546
NCI-H441,0.943,0.772,1.02,0.984,0.807,0.752,0.694,0.793,0.795,0.754,0.88,0.772,1.03,1.01,0.699,0.742,0.703,0.967,0.833,0.804
LCLC-103H,0.735,0.685,0.802,0.858,0.819,0.755,0.853,0.766,0.303,0.256,0.322,0.331,0.745,0.637,0.537,0.621,0.429,0.813,0.749,0.317
HOP-62,1.11,1.17,1.13,1.12,0.565,0.543,0.576,0.547,0.645,0.678,0.664,0.752,1.04,0.948,0.623,0.341,0.252,1.22,,0.72
NCI-H1793,0.877,0.815,0.601,0.659,0.774,0.733,0.681,0.704,0.393,0.41,0.403,0.368,0.661,0.349,0.393,0.256,0.237,0.682,0.522,0.314
HCC-44,,,,,1.03,1.09,1.12,1.02,0.187,0.122,0.135,0.136,,,,,,,1.1,0.115
IA-LM,1.28,1.01,1.19,1.23,1.07,1.2,,0.927,,,,,1.09,0.687,0.351,0.169,0.0888,1.12,1.04,
A549,1.03,0.97,1.13,1.16,,,,,0.16,0.101,0.114,0.183,0.817,0.594,0.534,0.178,0.0763,1.04,,0.181
NCI-H1563,1.04,0.897,0.943,0.901,,,,,0.627,0.64,0.672,0.684,0.953,0.815,0.807,0.804,0.694,0.955,,0.635
Calu-6,0.818,0.893,0.779,0.834,,,,,,,,,0.835,0.503,0.418,0.12,0.131,0.727,,
